Source: patent US10385070B2, “Chroman-spirocyclic piperidine amides as modulators of ion channels” (VERTEX PHARMACEUTICALS INCORPORATED, priority 2011, dated 2019)

Target: human NaV subtype, like NaV 1.7 (Homo sapiens, UniProt Q15858)
Assay: E-VIPR optical membrane potential assay with electrical stimulation
Assay type: cell-based
Details: active against one or more sodium channels; assay and NaV subtype not specified for Table 3; read-out: IC50 Binned Activity Data
Source text: Assays for Detecting and Measuring NaV Inhibition Properties of Compound E-VIPR Optical Membrane Potential Assay Method with Electrical Stimulation
Sodium channels are voltage-dependent proteins that can be activated by inducing membrane voltage changes by applying electric fields. The electrical stimulation instrument and methods of use are described in Ion Channel Assay Methods PCT/US01/21652, herein incorporated by reference and are referred to as E-VIPR. The instrument comprises a microtiter plate handler, an optical system for exciting the coumarin dye while simultaneously recording the coumarin and oxonol emissions, a waveform generator, a current- or voltage-controlled amplifier, and a device for inserting electrodes in well. Under integrated computer control, this instrument passes user-programmed electrical stimulus protocols to cells within the wells of the microtiter plate.
24 hours before the assay on E-VIPR, HEK cells expressing human NaV subtype, like NaV 1.7, are seeded in 384-well poly-lysine coated plates at 15,000-20,000 cells per well. Other subtypes are performed in an analogous mode in a cell line expressing the NaV of interest. HEK cells are grown in media (exact composition is specific to each cell type and NaV subtype) supplemented with 10% FBS (Fetal Bovine Serum, qualified; GibcoBRL #16140-071) and 1% Pen-Strep (Penicillin-Streptomycin; GibcoBRL #15140-122). Cells are grown in vented cap flasks, in 90% humidity and 10% CO2, to 100% confluence. They are usually split by trypsinization 1:10 or 1:20, depending on scheduling needs, and grown for 2-3 days before the next split.
100 mg/mL Pluronic F-127 (Sigma #P2443), in dry DMSO
Compound Plates: 384-well round bottom plate, e.g. Corning 384-well Polypropylene Round Bottom #3656
Cell Plates: 384-well tissue culture treated plate, e.g. Greiner #781091-1B
Bath1 buffer. Glucose 10 mM (1.8 g/L), Magnesium Chloride (Anhydrous), 1 mM (0.095 g/L), Calcium Chloride, 2 mM (0.222 g/L), HEPES 10 mM (2.38 g/L), Potassium Chloride, 4.5 mM (0.335 g/L), Sodium Chloride 160 mM (9.35 g/L).
Hexyl Dye Solution: Bath1 Buffer+0.5% β-cyclodextrin (make this prior to use, Sigma #C4767), 8 μM CC2-DMPE+2.5 μM DiSBAC6(3). To make the solution Add volume of 10% Pluronic F127 stock equal to volumes of CC2-DMPE+DiSBAC6(3). The order of preparation is first mix Pluronic and CC2-DMPE, then add DiSBAC6(3) while vortexing, then add Bath1+β-Cyclodextrin.
1) Pre-spot compounds (in neat DMSO) into compound plates. Vehicle control (neat DMSO), the positive control (20 mM DMSO stock tetracaine, 125 μM final in assay) and test compounds are added to each well at 160× desired final concentration in neat DMSO. Final compound plate volume will be 80 μL (80-fold intermediate dilution from 1 μL DMSO spot; 160-fold final dilution after transfer to cell plate). Final DMSO concentration for all wells in assay is 0.625%.
2) Prepare Hexyl Dye Solution.
3) Prepare cell plates. On the day of the assay, medium is aspirated and cells are washed three times with 100 μL of Bath1 Solution, maintaining 25 μL residual volume in each well.
4) Dispense 25 μL per well of Hexyl Dye Solution into cell plates. Incubate for 20-35 minutes at room temp or ambient conditions.
5) Dispense 80 μL per well of Bath1 into compound plates. Acid Yellow-17 (1 mM) is added and Potassium Chloride can be altered from 4.5 to 20 mM depending on the NaV subtype and assay sensitivity.
6) Wash cell plates three times with 100 μL per well of Bath1, leaving 25 μL of residual volume. Then transfer 25 uL per well from Compound Plates to Cell Plates. Incubate for 20-35 minutes at room temp/ambient condition
7) Read Plate on E-VIPR. Use the current-controlled amplifier to deliver stimulation wave pulses for typically 9 seconds and a scan rate of 400 Hz. A pre-stimulus recording is performed for 0.5 seconds to obtain the un-stimulated intensities baseline. […]

human NaV subtype, like NaV 1.7, sequence (Q15858 whole entry): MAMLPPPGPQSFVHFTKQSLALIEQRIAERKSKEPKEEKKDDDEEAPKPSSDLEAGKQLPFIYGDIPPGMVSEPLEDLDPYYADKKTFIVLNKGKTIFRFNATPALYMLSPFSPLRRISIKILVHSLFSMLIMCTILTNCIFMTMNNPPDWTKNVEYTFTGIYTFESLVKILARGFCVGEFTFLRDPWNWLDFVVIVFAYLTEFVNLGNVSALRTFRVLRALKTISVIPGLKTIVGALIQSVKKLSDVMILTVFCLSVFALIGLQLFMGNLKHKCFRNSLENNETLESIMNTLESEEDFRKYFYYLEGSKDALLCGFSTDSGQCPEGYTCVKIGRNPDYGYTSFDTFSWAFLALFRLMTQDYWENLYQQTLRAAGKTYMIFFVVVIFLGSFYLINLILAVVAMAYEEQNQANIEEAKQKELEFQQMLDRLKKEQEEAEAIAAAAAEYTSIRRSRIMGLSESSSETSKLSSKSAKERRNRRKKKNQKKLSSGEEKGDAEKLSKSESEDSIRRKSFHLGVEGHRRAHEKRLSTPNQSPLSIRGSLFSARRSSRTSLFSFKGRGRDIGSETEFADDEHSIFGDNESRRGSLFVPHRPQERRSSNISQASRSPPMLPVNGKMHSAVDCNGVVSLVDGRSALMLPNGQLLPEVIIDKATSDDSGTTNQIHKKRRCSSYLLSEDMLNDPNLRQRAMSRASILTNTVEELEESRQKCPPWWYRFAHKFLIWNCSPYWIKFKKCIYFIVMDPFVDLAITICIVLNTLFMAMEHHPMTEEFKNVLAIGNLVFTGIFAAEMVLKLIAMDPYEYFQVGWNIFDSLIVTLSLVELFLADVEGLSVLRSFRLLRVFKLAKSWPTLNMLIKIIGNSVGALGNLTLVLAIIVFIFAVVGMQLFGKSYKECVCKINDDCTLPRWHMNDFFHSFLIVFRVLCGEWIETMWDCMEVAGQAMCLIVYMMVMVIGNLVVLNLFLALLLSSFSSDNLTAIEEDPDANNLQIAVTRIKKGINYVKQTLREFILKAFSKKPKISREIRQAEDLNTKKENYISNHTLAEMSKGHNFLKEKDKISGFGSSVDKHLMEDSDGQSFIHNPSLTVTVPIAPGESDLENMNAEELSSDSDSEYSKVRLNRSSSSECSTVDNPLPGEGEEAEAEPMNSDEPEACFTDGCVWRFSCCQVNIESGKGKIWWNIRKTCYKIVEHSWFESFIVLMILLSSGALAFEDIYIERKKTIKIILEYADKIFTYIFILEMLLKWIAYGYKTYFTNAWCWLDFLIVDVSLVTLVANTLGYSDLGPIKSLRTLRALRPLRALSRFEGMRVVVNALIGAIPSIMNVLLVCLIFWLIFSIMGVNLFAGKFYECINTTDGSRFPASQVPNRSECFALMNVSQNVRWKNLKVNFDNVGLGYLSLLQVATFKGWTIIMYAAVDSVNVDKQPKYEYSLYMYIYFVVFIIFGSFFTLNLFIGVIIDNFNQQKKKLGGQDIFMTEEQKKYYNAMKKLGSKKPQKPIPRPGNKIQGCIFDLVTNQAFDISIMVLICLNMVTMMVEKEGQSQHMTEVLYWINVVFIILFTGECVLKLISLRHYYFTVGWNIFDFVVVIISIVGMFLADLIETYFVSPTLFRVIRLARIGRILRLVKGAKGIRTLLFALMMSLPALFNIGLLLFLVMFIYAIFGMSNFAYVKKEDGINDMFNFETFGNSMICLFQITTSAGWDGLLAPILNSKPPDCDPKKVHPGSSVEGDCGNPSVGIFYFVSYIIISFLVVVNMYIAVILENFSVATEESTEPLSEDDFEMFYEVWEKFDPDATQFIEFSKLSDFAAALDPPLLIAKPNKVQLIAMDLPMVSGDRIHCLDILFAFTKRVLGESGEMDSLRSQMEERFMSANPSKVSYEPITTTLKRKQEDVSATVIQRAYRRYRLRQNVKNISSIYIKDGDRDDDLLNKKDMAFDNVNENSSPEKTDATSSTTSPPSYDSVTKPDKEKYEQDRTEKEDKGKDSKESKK

CC(C)Oc1ccc(C(=O)N2CCC3(CC2)C[C@@H](OC(C)C)c2cc(F)ccc2O3)c(OC(F)F)c1 [Compound 55]
IC50: ≤ 2000 nM

CCOCC1CC2(CCN(C(=O)c3ccc(OC(C)C)c(OC)c3)CC2)Oc2ccccc21 (centres unmarked) [Compound 56]
IC50: ≤ 2000 nM

COc1cc(C(=O)N2CCC3(CC2)C[C@@H](OC(C)C)c2ccccc2O3)ccc1C(C)(C)O [Compound 57]
IC50: ≤ 2000 nM

CC(C)O[C@@H]1CC2(CCN(C(=O)c3ccc(S(=O)(=O)CC4CCC4)cn3)CC2)Oc2ccc(F)cc21 [Compound 58]
IC50: ≤ 2000 nM

CC(C)O[C@@H]1CC2(CCN(C(=O)c3ccc(S(=O)(=O)C(C)(C)C)cc3)CC2)Oc2ccc(F)cc21 [Compound 59]
IC50: ≤ 2000 nM

COc1cc(C(=O)N2CCC3(CC2)CC(OC(C)C)c2ccccc2O3)ccc1C(C)(C)C (centres unmarked) [Compound 60]
IC50: ≤ 2000 nM

CC1CCN(c2ccc(C(=O)N3CCC4(CC3)C[C@@H](OC(C)C)c3cc(F)ccc3O4)nc2)CC1 [Compound 61]
IC50: ≤ 2000 nM

COc1cc(C(=O)N2CCC3(CC2)CC(OC(C)C)c2ccccc2O3)ccc1C(C)(C)CO (centres unmarked) [Compound 62]
IC50: ≤ 2000 nM

COc1cc(C(=O)N2CCC3(CC2)CC(COC(F)F)c2ccccc2O3)ccc1OC(C)C (centres unmarked) [Compound 63]
IC50: ≤ 2000 nM

CC[C@H](C)Nc1ccc(C(=O)N2CCC3(CC2)C[C@@H](OC(C)C)c2cc(F)ccc2O3)nc1 [Compound 64]
IC50: ≤ 2000 nM

CC(C)O[C@H]1CC2(CCN(C(=O)c3ccc4[nH]ncc4c3)CC2)Oc2ccccc21 [Compound 65]
IC50: 2000 to 5000 nM

CC[C@@H](C)Nc1ccc(C(=O)N2CCC3(CC2)C[C@@H](OC(C)C)c2cc(F)ccc2O3)nc1 [Compound 66]
IC50: ≤ 2000 nM

CC(C)O[C@@H]1CC2(CCN(C(=O)c3ccc(N4CCC[C@@H]4C)cn3)CC2)Oc2ccc(F)cc21 [Compound 67]
IC50: ≤ 2000 nM

CC(C)O[C@@H]1CC2(CCN(C(=O)c3ccc(S(=O)(=O)C(C)C)cc3)CC2)Oc2ccc(F)cc21 [Compound 68]
IC50: ≤ 2000 nM

COc1nc(C)ccc1C(=O)N1CCC2(CC1)C[C@@H](OC(C)C)c1ccccc1O2 [Compound 69]
IC50: ≤ 2000 nM

COc1cc(C(=O)N2CCC3(CC2)C[C@@H](OC(C)C)c2ccccc2O3)ccc1OC(F)F [Compound 70]
IC50: 2000 to 5000 nM

COc1cc(C(=O)N2CCC3(CC2)C[C@H](OC(C)C)c2ccccc2O3)ccc1C(C)(C)CO [Compound 71]
IC50: ≤ 2000 nM

Cc1cc(C(=O)N2CCC3(CC2)C[C@@H](OC(C)C)c2ccccc2O3)ccc1OC(C)C [Compound 72]
IC50: ≤ 2000 nM

CC(C)Oc1ccc(C(=O)N2CCC3(CC2)C[C@@H](OC(C)C)c2ccccc2O3)c(F)c1 [Compound 74]
IC50: ≤ 2000 nM

CC(C)O[C@@H]1CC2(CCN(C(=O)c3ccc(N4CCC[C@H]4C)cn3)CC2)Oc2ccc(F)cc21 [Compound 75]
IC50: ≤ 2000 nM

CC(C)Oc1ccc(C(=O)N2CCC3(CC2)CC(OC(C)C)c2ccccc2O3)cc1C#N (centres unmarked) [Compound 76]
IC50: ≤ 2000 nM

Cc1cc(C(=O)N2CCC3(CC2)C[C@H](O)c2cc(F)ccc2O3)ccc1OC(C)C [Compound 77]
IC50: ≤ 2000 nM

CC(C)OC1CC2(CCN(C(=O)c3ccc(S(=O)(=O)C(C)C)cc3)CC2)Oc2c(F)cccc21 (centres unmarked) [Compound 78]
IC50: ≤ 2000 nM

COc1cc(C(=O)N2CCC3(CC2)C[C@@H](OC(C)C)c2cc(F)ccc2O3)ccc1OC(F)F [Compound 79]
IC50: ≤ 2000 nM

Cc1nc(C(=O)N2CCC3(CC2)C[C@@H](OC(C)C)c2ccccc2O3)ccc1OC(C)C [Compound 80]
IC50: ≤ 2000 nM

COc1cc(C(=O)N2CCC3(CC2)CC(OC(C)C)c2ccccc2S3(=O)=O)ccc1OC(C)C (centres unmarked) [Compound 81]
IC50: ≤ 2000 nM

CC(C)O[C@@H]1CC2(CCN(C(=O)c3ccc(S(=O)(=O)C4CC4)cc3)CC2)Oc2ccc(F)cc21 [Compound 82]
IC50: ≤ 2000 nM

COc1cc(C(=O)N2CCC3(CC2)CC(CSC)c2ccccc2O3)ccc1OC(C)C (centres unmarked) [Compound 83]
IC50: ≤ 2000 nM

COc1cc(C(=O)N2CCC3(CC2)CC(OC(C)C)c2cccnc2O3)ccc1OC(C)C (centres unmarked) [Compound 84]
IC50: ≤ 2000 nM

Cc1cc(S(C)(=O)=O)ccc1C(=O)N1CCC2(CC1)C[C@@H](OC(C)C)c1cc(F)ccc1O2 [Compound 85]
IC50: 2000 to 5000 nM

COc1cc(C(=O)N2CCC3(CC2)CC(OCCS(C)(=O)=O)c2ccccc2O3)ccc1OC(C)C (centres unmarked) [Compound 86]
IC50: > 5000 nM

Cc1cc(C(F)F)n2ncc(C(=O)N3CCC4(CC3)C[C@@H](OC(C)C)c3ccccc3O4)c2n1 [Compound 87]
IC50: ≤ 2000 nM

CC(C)OC1CC2(CCN(C(=O)c3ccccc3OC(F)F)CC2)Oc2ccccc21 (centres unmarked) [Compound 88]
IC50: ≤ 2000 nM

Cc1cc(C(=O)N2CCC3(CC2)CC(OC(C)C)c2cnccc2O3)ccc1OC(C)C (centres unmarked) [Compound 89]
IC50: 2000 to 5000 nM

Cc1cc(C(=O)N2CCC3(CC2)CC(OC(C)C)c2cccc(F)c2O3)ccc1S(=O)(=O)C(C)C (centres unmarked) [Compound 90]
IC50: ≤ 2000 nM

CC(C)Oc1ccc(C(=O)N2CCC3(CC2)C[C@@H](OC(C)C)c2ccccc2O3)cc1O [Compound 91]
IC50: ≤ 2000 nM

Cc1cc(C(=O)N2CCC3(CC2)C[C@@H](OC(C)C)c2cc(F)ccc2O3)ccc1OC1COC1 [Compound 92]
IC50: ≤ 2000 nM

CCC1COCCN1c1ccc(C(=O)N2CCC3(CC2)C[C@@H](OC(C)C)c2cc(F)ccc2O3)nc1 (some centres unmarked) [Compound 93]
IC50: ≤ 2000 nM

COc1cc(C(=O)N2CCC3(CC2)Oc2ccccc2C(OC(C)C)C3C)ccc1OC(C)C (centres unmarked) [Compound 94]
IC50: ≤ 2000 nM

CC(C)O[C@@H]1CC2(CCN(C(=O)c3ccc(N4CC5CC4CO5)cn3)CC2)Oc2ccc(F)cc21 (some centres unmarked) [Compound 95]
IC50: ≤ 2000 nM

Cc1cc(C(=O)N2CCC3(CCc4ccccc4O3)CC2)ccc1OC(C)C [Compound 96]
IC50: ≤ 2000 nM

CC(C)O[C@@H]1CC2(CCN(C(=O)c3ccc(N(C)CCN(C)C)cn3)CC2)Oc2ccc(F)cc21 [Compound 97]
IC50: > 5000 nM

COc1cc(C(=O)N2CCC3(CC2)C[C@@H](O)c2cc(F)ccc2O3)ccc1OC(C)C [Compound 98]
IC50: ≤ 2000 nM

CC(C)Oc1ccc(C(=O)N2CCC3(CC2)CC(OC(C)C)c2ccccc2S3(=O)=O)cc1 (centres unmarked) [Compound 99]
IC50: ≤ 2000 nM

CCOC1Cc2ccccc2OC12CCN(C(=O)c1ccc(OC(C)C)c(OC)c1)CC2 (centres unmarked) [Compound 100]
IC50: ≤ 2000 nM

Cc1nc(C(=O)N2CCC3(CC2)C[C@@H](OC(C)C)c2cc(F)ccc2O3)ccc1S(=O)(=O)C(C)C [Compound 101]
IC50: > 5000 nM

CC(C)O[C@@H]1CC2(CCN(C(=O)c3ccc(N4CCCC4)cn3)CC2)Oc2ccccc21 [Compound 102]
IC50: > 5000 nM

CC(C)O[C@@H]1CC2(CCN(C(=O)c3ccc(N4CC(S(C)(=O)=O)C4)cn3)CC2)Oc2ccc(F)cc21 [Compound 103]
IC50: > 5000 nM

Cc1cc(C(=O)N2CCC3(CC2)CC(OC(C)C)c2nn(C)cc2O3)ccc1OC(C)C (centres unmarked) [Compound 104]
IC50: ≤ 2000 nM

COc1cc(C(=O)N2CCC3(CC2)CC(OCc2cccnc2)c2ccccc2O3)ccc1OC(C)C (centres unmarked) [Compound 105]
IC50: ≤ 2000 nM

COc1cc(C(=O)N2CCC3(CC2)C[C@H](OC(C)C)c2ccccc2O3)ccc1OCCCO [Compound 106]
IC50: ≤ 2000 nM

Cc1nc(C(=O)N2CCC3(CC2)C[C@H](OC(C)C)c2ccccc2O3)ccc1OC(C)C [Compound 107]
IC50: ≤ 2000 nM

CC(C)OCC1CC2(CCN(C(=O)c3ccc(OC(C)C)c(CO)c3)CC2)Oc2ccccc21 (centres unmarked) [Compound 108]
IC50: ≤ 2000 nM
